For 35 compounds, melting point results are on record in a melting point compilation (Tetko et al.; mined from patent text by program, amines drawn as free bases though some values may be those of a salt).

Turning to `FC1CN(C(c2ccccc2)c2ccccc2)C1`, the melting point (commonly the temperature of the solid-liquid transition) lay in the range of 154 to 156 °C.

In turn, `CC(=O)N(C(C)=O)c1csc(Br)n1` showed a melting point of 63 to 65 °C.

In turn, `NC(=O)c1cc2c(Oc3ccc(N)cc3)cncc2s1` showed a melting point of over 250 °C.

`O=c1c(C(O)c2ccc(Cl)cc2)c(Cl)nc2n1CCS2` (stereo not given) showed a melting point of 175 to 177 °C.

In the case of `COC(OC)c1cnc(N2C(=O)c3ccccc3C2=O)c(C#N)n1`, the melting point lay in the range of 115 to 116 °C.

Take `COc1ccc2cc(C(=O)Cl)oc2c1`: the melting point fell in the range of 96 to 99 °C.

`CCCCCCn1c2c(c(=O)n3nc(-c4ccccc4)cc13)CN(C1CCCCC1)C2=O` came in with a melting point of 162 to 164 °C.

`N#CC(N)c1cccc(Cl)c1` (stereo not given) yielded a melting point of 31 to 33 °C.

Compound `COC(=O)CCC(=NOCc1ccc(OCCc2nc(-c3ccccc3)oc2C)cc1)c1ccccc1` gave a melting point of 73 to 74 °C.

As for `COc1ccccc1N1CCN(CCCNC(=O)c2cccc3c(=O)c(C)c(-c4cccc([N+](=O)[O-])c4)oc23)CC1`, the melting point was 135 to 137 °C.

For the compound `O=C1Cc2cccc(Oc3ccccc3Cl)c2O1`, the melting point was 118 to 120 °C.

Compound `CSc1[nH]c2cccc3c2c1CC1C3CC(C)CN1C` (stereo not given) registered a melting point of 201 to 202 °C.

`CSc1noc(C2CC2)c1C(=O)c1ccc(C(F)(F)F)nc1C` showed a melting point of 103 to 104 °C.

On to `Cc1oc(-c2ccccc2)nc1CCc1noc2cc(CC(Sc3ccccc3)C(=O)O)ccc12` (stereo not given), for which the melting point fell in the range of 145 to 147 °C.

`CSc1nc(CO)c(CO)n1-c1ccccc1` had a melting point of 137 to 138 °C.

Compound `CC(C)(O)CC1NC(=O)c2ccccc21` (stereo not given) gave a melting point of 122 to 123 °C.

The compound `COC(=O)CCc1cc2c(s1)NC(=S)C(C)N=C2c1ccccc1Cl` (stereo not given) displayed a melting point of 198 to 200 °C.

Consider `O=C1NCCc2c(OCCCN3CCCCC3)cccc21`, for which the melting point is 112 to 114 °C.

The compound `O=C(Nc1cccnc1)c1cc2ccncc2[nH]1` yielded a melting point of 270 to 290 °C.

`CNc1ncc(S(=O)(=O)NC(=O)NC(C)C)c(Nc2cccc(C)c2)n1` returned a melting point of 206 to 207 °C.

In the case of `CCc1c2c(c(C)c(C)c1N1CCN(c3ccc(OC)cc3)CC1)OC(C)(C)C2=O`, the melting point fell in the range of 133 to 134 °C.

Regarding `CC(C)Oc1ccc(C=O)c(Oc2ccc(Cl)cc2Cl)n1`, the melting point lay in the range of 73 to 74 °C.

In turn, `Brc1ccc(-c2ccc(Br)cc2-c2nc3ccccc3[nH]2)c(-c2nc3ccccc3[nH]2)c1` yielded a melting point of 326 to 328 °C.

With `NC(=O)[C@@H]1[C@H](Nc2ccnc3[nH]c(-c4cccc(CN5CCOCC5)c4)nc23)[C@H]2C=C[C@@H]1C2`, the melting point fell in the range of 240 to 244 °C.

The compound `Cc1nn(-c2ccccn2)c2c1C(=O)CC(C)(C)C2S(=O)(=O)c1ccccc1` (stereo not given) registered a melting point of 165 to 166 °C.

The compound `COc1cc(OCc2ccccn2)ccc1/C=C/c1cc(/C=C/c2ccccc2)[nH]n1` had a melting point of 143 to 146 °C.

In turn, `c1ccc(C(=C(c2ccccc2)P(C2CCCCC2)C2CCCCC2)c2ccccc2)cc1` came in with a melting point of 121 to 123 °C.

The compound `N#Cc1cc(Oc2ccc(Cl)c(Cl)c2)cnc1Cl` came in with a melting point of 76 to 78 °C.

Regarding `C=CCNc1nc(NC(C)(C)C)nc2ccc([N+](=O)[O-])cc12`, the melting point lay within 139 to 140 °C.

On to `COc1ccccc1NC(=O)C1CCc2nc[nH]c2C1` (stereo not given), for which the melting point fell in the range of 100 to 102 °C.

Compound `CC(C)(c1ccc(O)cc1)c1ccc(O)c(Cl)c1` returned a melting point of 106 to 107 °C.

`O=c1ccc2cc([N+](=O)[O-])cc(-c3cccc4ccccc34)c2[nH]1` yielded a melting point of 234 to 235 °C.

On to `O=COCc1ccc2c(c1)C(C(Cl)(Cl)Cl)OC(C(Cl)(Cl)Cl)O2` (stereo not given), for which the melting point is 75 to 77 °C.

As to `CCOC(=O)C1=Cc2cc(Br)ccc2OCC1`, the melting point was in the range of 86 to 87 °C.

With `CC[C@H]1CN(c2c(F)cc3c(=O)c(C(=O)O)cn([C@@H]4C[C@@H]4F)c3c2OC)C[C@H]1NC`, the melting point lay within 143 to 145 °C.
